Experimental data taken from patent US20180353445A1, “METHODS AND COMPOSITIONS RELATING TO PROTEASOME INHIBITOR RESISTANCE” (Whitehead Institute for Biomedical Research, priority 2017, published 2018).
Residues, ends and D or L forms follow the SMILES beside them. *: point of attachment. Cbz = O=C(OCc1ccccc1)*

Columns and labels:
[1] = system: Saccharomyces cerevisiae; test: Yeast MG132 sensitivity assay, proteasome subunit DAmP strains; assay type: cell-based; conditions: five of twelve strains, 50 μM
Procedure: FIG. 7: Reducing the levels of 19S subunits is an evolutionarily conserved mechanism to acquire resistance to proteasome inhibition.
As the 19S regulatory complex components are essential for viability in yeast, we utilized a library of hypomorphic (DAmP) alleles for essential yeast genes. In this library, the expression of individual mRNA. species is reduced from two to ten-fold by replacing the mRNA's 3′ untranslated region (Breslow et al., 2008).
Yeast cells were grown over night in media containing L-proline as nitrogen source instead of ammonium sulfate. The overnight cultures were diluted into OD 0.1 and were grown in the L-proline culture with 0.003% SDS with or without 50 μM MG-132. OD was measured over the period of 48 hours.

[2] = system: cancer cell lines (GDSC); test: Genomics of Drug Sensitivity in Cancer (GDSC) data analysis, IC50 of bortezomib and MG132 vs 19S expression / sigma score; assay type: cell-based, human; conditions: GDSC database
Text: In some aspects, whether a cancer cell is considered resistant or sensitive to a particular agent may be determined by comparing the IC50 of the agent for the cancer cell with the IC50 of the agent as measured for each cell line in a panel of diverse cancer cell lines. Cancer cells for which the agent has an IC50 in the 10th percentile of IC50 values determined for the agent on a diverse panel of cancer cell lines may be considered sensitive, while cancer cells for which the agent has an IC50 in the 90th percentile of IC50 values determined for the agent on a diverse panel of cancer cell lines may be considered resistant to the agent.
We asked if this might correlate with changes in 19S subunit expression. We analyzed the Genomics of Drug Sensitivity in Cancer (GDSC) database, a public resource of transcriptional data and drug responsiveness collected from a spectrum of human cancer cell lines with diverse tissue origins and diverse oncogenic lesions (Garnett et al., 2012). […]
Further details of methods used in GDSC dataset analysis: Gene expression and drug sensitivity data was downloaded from the World Wide Web at subdomain cancerrxgene.org. […] For each proteasomal subunit gene, a-score was calculated for each cell line. […] P-values were calculated by t-test, comparing the logEC50s between the 3 sigma and not 3 sigma.

[3] = system: T47D cells; test: Cell viability, T47D cells with doxycycline-inducible PSMD2 shRNA (KD) vs control; assay type: cell-based, human; conditions: doxycycline-regulated PSMD2 shRNA
Procedure: FIGS. 37A-37E: Subunit suppression results in highly specific drug sensitivity alteration. Schematic representation of the drug screen setup. (FIG. 37A) 147D cells harboring a doxycycline-inducible PSMD2 shRNA were grown in the presence or absence of doxycycline for 48 hr. Cells were then collected, washed, and plated in the absence of doxycycline for 24 hr prior to exposure different compounds. Relative cell numbers were measured 3 days later. […] (FIGS. 37C-37E) The relative viability of the PSMD2 knockdown (KD) versus the control was calculated for replica experiments and the log2 of the ratio is plotted for 349 compounds from the Selleck anti-cancer L3000 drug library that were tested in 4 concentrations (FIG. 37C), the Selleck natural product library (NPC) comprising 502 compounds in 5 doses (FIG. 37D), and the NIH bioactive compound library that includes 731 compounds in 4 doses (FIG. 37E). Specific compounds are annotated.
The effect of transient PSMD2 reduction on growth of T47D cells in the presence of different proteasome inhibitors (bortezomib, MLN9708, carfilzomib, oprozornib) was tested. T47D cells harboring a doxycycline inducible control shRNA (GFP) or a doxycycline-inducible PSMD2 shRNA (TurhoRFP) were incubated with doxycycline for 3 days. Cells were then split and grown in the absence of Dox and proteasome inhibitors were then added at various concentrations. Cells were maintained in culture and then counted.
For the generation of the T47D Tet-inducible PSMD2 knockdown cell line- the TRIPZ vector with an inducible shRNA targeting PSMD2 was purchased from Dhannacon (clone V3THS_403760). It was introduced to the T47D cells according to manufactures protocol and cells were selected with puromycin 1 μg/ml for one week. The cells were exposed to doxycycline for 24 hours and cells were FACS sorted for the top 10% of most RFP expressing cells (highest expression of shRNA). The cells were further cultured in the absence of doxycycline and PSMD2 knockdown was induced as specified in the relevant Examples. The TRIPZ control GFP vector was created by removing the turboRFP from the TRIPZ control vector by digestion with Agel and ClaI and replacing it with GFP amplified with primers flanking with Agel and Clal restriction sites.
Cell Viability Assay—Relative cell growth and survival were measured in 96-well microplate format in the shRNA experiments and in 384 well format in the drug toxicity assays, by using the fluorescent detection of resazurin dye reduction as an endpoint (544 nm excitation and 590 run emission). 2,500 cells in 96 wells format or 1,000 cells in 384 well format were plated 24 hours before compound exposure (for 72 hours or indicated time). Each analysis was performed at least with three replicas.

[4] = system: cancer cells; test: Cell viability, elesclomol and elesclomol analogs (cell titer-glo); assay type: cell-based; conditions: substitution of oxygen for sulfur group(s)
Text: In addition to the intrinsic sensitivity of certain cancer cells to elesclomol, as our drug screen indicated, the sensitivity of cancer cells to elesclomol can be further enhanced by forcing them into a Hi-OXPHOS state.
We examined several elesclomol analogs (FIG. 57B) to determine the structural features that are important for mediating its cytotoxicity. […] Substitution of oxygen for even one of the sulfur groups (compound-5) reduced the activity of elesclomol by 300 fold. The loss of activity was even more pronounced (>>300 fold) when both sulfurs were substituted (compound-6) (FIGS. 51C-51D, FIG. 57C). Various other modifications to the elesclomol scaffold were tolerated, as long as the core sulfur geometry remained intact.
(§1) Cell viability—where indicated relative cell number following different drug treatment was conducted by plating cells at 1000 cells/well in 384 well plates. Indicated concentrations of compounds were added 24 hour after plating at least in triplicate for each condition. Viability was measured 72 hours after drug addition using cell titer-glo (Promega) according to manufactures protocol. […]

[5] = system: MCF7 and HEK293 cells; test: Cell viability with glucose or galactose as the carbon source; assay type: cell-based, human; conditions: 10 mM glucose or 10 mM galactose
Procedure: Cells were treated with increasing concentrations of elesclomol in the presence of either Glucose or Galactose as the carbon source (FIG. 40A). The presence of Galactose will induce a mitochondrial dependent metabolism (FIGS. 40B-40C, Gohil et al., Nature Biotechnology 28, 249-255 (2010)).
The sensitivity of cells to different chemical isoforms of elesclomol was also assessed. […] Removing even one substantially impairs the ability of the molecule to induce toxicity (FIG. 41B).
Cell culture methods—147D, Lo19S T47D, K562 and 293T-HS cells were cultured in RPMI-1640 medium supplemented with 10% fetal bovine serum; HEK293, HEK293T and MCF-7 cells were cultured in Dulbecco's modified Eagle's medium supplemented with 10% fetal bovine serum. For the glucose, galactose experiments media lacking glucose was supplemented with dialyzed serum and either 10 mM Glucose or 10 mM galactose.
as §1

[6] = system: T47D cells; test: The glucose/galactose drug screen; assay type: cell-based, human; conditions: 10 mM Glucose or Galactose, Selleck anti cancer and natural product libraries

## CC(C)C[C@@H](C=O)NC(=O)[C@H](CC(C)C)NC(=O)[C@H](CC(C)C)NC(=O)OCc1ccccc1 [MG132, N-(benzyloxycathonyl)leucinylieucinylieucinal] (Cbz-Leu-Leu-Leu-aldehyde)
[1]
  resistance of 19S DAmP yeast strains to proteasome inhibition: significantly increased resistance
[2]
  average IC50 value in 3-Sigma cell lines vs all other lines: considerably higher
[3]
  resistance after transient reduction of PSMD2: significantly increased resistance

## CN(NC(=O)CC(=O)NN(C)C(=S)c1ccccc1)C(=O)c1ccccc1 [compound-5]
[4]
  reduction of activity relative to elesclomol: 300 fold

## antimycin A
[5]
  sensitivity of cells in galactose (mitochondrial metabolism, Hi-OXPHOS) versus glucose (glycolytic): This phenomenon is observed
[6]
  relative viability change of cells grown in glucose versus galactose: increased sensitivity
